Assay results published in patent US12691112B2, “FGFR tyrosine kinase inhibitors for the treatment of urothelial carcinoma” (Janssen Pharmaceutica NV, priority 2019, dated 2026).
Where two headings read alike, the source gives them in different places.

Tested on: metastatic or surgically unresectable urothelial cancer harboring select FGFR genetic alterations
Settings: chemo relapsed/refractory
Description: The study comprises a Screening Phase (molecular screening at any time prior to first dose and study screening within 30 days of first dose), a treatment phase, and a post-treatment follow-up phase. The treatment phase comprises the period from first dose until the end-of-treatment visit. The follow-up phase extends until the subject has died, withdraws consent, is lost to follow-up, or the end of study, whichever comes first.
Included patients were adults with measurable urothelial cancer per Response Evaluation Criteria in Solid Tumors version 1.1.
Patients were required to have at least 1 FGFR2/FGFR3 mutation or fusion per central lab testing of RNA from formalin-fixed, paraffin-embedded tumor samples, using a custom reverse transcriptase polymerase chain reaction assay.
Patients were contacted every 12 weeks for survival assessment.
The study was designed to enroll 180 patients with specified FGFR alterations. Of these, ≥88 were required in the selected regimen. […] Responses were assessed by investigators and an independent radiological review committee. Progression-free survival and overall survival were estimated using Kaplan-Meier product limit method. Data from patients who were progression free and alive or with unknown status were censored at last tumor assessment. Efficacy end points were analysed at primary analysis cut-off.

[1] = 6 mg QD, Any FGFR alterations, n=73
[2] = 6 mg QD, FGFR fusions (excluding mutations), 2 responders
[3] = 6 mg QD, FGFR fusions (excluding mutations), n=10
[4] = 6 mg QD, FGFR mutations (excluding fusions), 22 responders
[5] = 6 mg QD, FGFR mutations (excluding fusions), n=59
[6] = 6 mg QD, FGFR mutations and fusions, 3 responders
[7] = 6 mg QD, FGFR mutations and fusions, n=4
[8] = 6 mg QD, Fusion: FGFR2-CASP7/FGFR3-BAIAP2L1, n=1
[9] = 6 mg QD, Mutation and fusion: FGFR3-G370C/FGFR2-BICC1, n=1
[10] = 6 mg QD, Mutation and fusion: FGFR3-G370C/FGFR3-TACC3 V1, n=1
[11] = 6 mg QD, Mutation and fusion: FGFR3-R248C/FGFR3-S249C/FGFR3-TACC3 V1, n=1
[12] = 6 mg QD, Mutation and fusion: FGFR3-R248C/FGFR3-TACC3 V1, n=1
[13] = 6 mg QD, Mutation: FGFR3-G370C/FGFR3-S249C, n=1
[14] = 6 mg QD, Mutation: FGFR3-R248C/FGFR3-Y373C, n=1
[15] = 8 mg QD, Any FGFR alterations, n=87
[16] = 8 mg QD, FGFR fusions (excluding mutations), 4 responders
[17] = 8 mg QD, FGFR fusions (excluding mutations), n=23
[18] = 8 mg QD, FGFR mutations (excluding fusions), 31 responders
[19] = 8 mg QD, FGFR mutations (excluding fusions), n=64
[20] = 8 mg QD, Fusion: FGFR2-CASP7/FGFR3-TACC3 V3, n=1
[21] = 10 mg 7 on/7 off, Any FGFR alterations, n=29
[22] = 10 mg 7 on/7 off, FGFR fusions (excluding mutations), n=2
[23] = 10 mg 7 on/7 off, FGFR mutations (excluding fusions), 5 responders
[24] = 10 mg 7 on/7 off, FGFR mutations (excluding fusions), n=24
[25] = 10 mg 7 on/7 off, FGFR mutations and fusions, 1 responder
[26] = 10 mg 7 on/7 off, FGFR mutations and fusions, n=3
[27] = 10 mg 7 on/7 off, Mutation and fusion: FGFR3-R248C/FGFR3-TACC3 V1, n=1
[28] = 10 mg 7 on/7 off, Mutation and fusion: FGFR3-S249C/FGFR3-BAIAP2L1, n=1
[29] = 10 mg 7 on/7 off, Mutation and fusion: FGFR3-S249C/FGFR3-Y373C/FGFR2-CASP7/FGFR3-BAIAP2L1/FGFR3-TACC3 V1/FGFR3-TACC3 V3, n=1

COc1cc(OC)cc(N(CCNC(C)C)c2ccc3ncc(-c4cnn(C)c4)nc3c2)c1 [erdafitinib, N-(3,5-dimethoxy-phenyl)-N′-(1-methylethyl)-N-[3-(1-methyl-1H-pyrazol-4-yl)quinoxalin-6-yl]ethane-1,2-diamine]
Confirmed complete response (CR) [1]: 3 (4.1%)
Confirmed partial response (PR) [1]: 24 (32.9%)
Disease control rate (CR + PR + SD) [1]: 55 (75.3%)
Inevaluable [1]: 4 (5.5%)
Progressive disease (PD) [1]: 14 (19.2%)
6-month progression-free survival rate (95% CI), among responders [2]: 0.50 (0.01, 0.91)
9-month progression-free survival rate (95% CI), among responders [2]: 0.50 (0.01, 0.91)
12-month progression-free survival rate (95% CI), among responders [2]: 0.50 (0.01, 0.91)
Confirmed complete response (CR) [3]: 0%
Confirmed partial response (PR) [3]: 2 (20.0%)
Disease control rate (CR + PR + SD) [3]: 9 (90.0%)
Inevaluable [3]: 1 (10.0%)
Objective response rate (CR + PR) [3]: 2 (20.0%)
Progressive disease (PD) [3]: 0%
6-month progression-free survival rate (95% CI), among responders [4]: 0.41 (0.21, 0.60)
9-month progression-free survival rate (95% CI), among responders [4]: 0.27 (0.11, 0.46)
12-month progression-free survival rate (95% CI), among responders [4]: 0.18 (0.06, 0.36)
Confirmed complete response (CR) [5]: 2 (3.4%)
Confirmed partial response (PR) [5]: 20 (33.9%)
Disease control rate (CR + PR + SD) [5]: 43 (72.9%)
Inevaluable [5]: 2 (3.4%)
Objective response rate (CR + PR) [5]: 22 (37.3%)
Progressive disease (PD) [5]: 14 (23.7%)
6-month progression-free survival rate (95% CI), among responders [6]: 0.67 (0.05, 0.95)
9-month progression-free survival rate (95% CI), among responders [6]: 0.67 (0.05, 0.95)
12-month progression-free survival rate (95% CI), among responders [6]: 0.33 (0.01, 0.77)
Confirmed complete response (CR) [7]: 1 (25.0%)
Confirmed partial response (PR) [7]: 2 (50.0%)
Disease control rate (CR + PR + SD) [7]: 3 (75.0%)
Inevaluable [7]: 1 (25.0%)
Objective response rate (CR + PR) [7]: 3 (75.0%)
Progressive disease (PD) [7]: 0%
Confirmed complete response (CR) [8]: 0%
Confirmed partial response (PR) [8]: 0%
Disease control rate (CR + PR + SD) [8]: 1 (100.0%)
Inevaluable [8]: 0%
Objective response rate (CR + PR) [8]: 0%
Progressive disease (PD) [8]: 0%
Confirmed complete response (CR) [9]: 1 (100.0%)
Confirmed partial response (PR) [9]: 0%
Disease control rate (CR + PR + SD) [9]: 1 (100.0%)
Inevaluable [9]: 0%
Objective response rate (CR + PR) [9]: 1 (100.0%)
Progressive disease (PD) [9]: 0%
Confirmed complete response (CR) [10]: 0%
Confirmed partial response (PR) [10]: 1 (100.0%)
Disease control rate (CR + PR + SD) [10]: 1 (100.0%)
Inevaluable [10]: 0%
Objective response rate (CR + PR) [10]: 1 (100.0%)
Progressive disease (PD) [10]: 0%
Confirmed complete response (CR) [11]: 0%
Confirmed partial response (PR) [11]: 1 (100.0%)
Disease control rate (CR + PR + SD) [11]: 1 (100.0%)
Inevaluable [11]: 0%
Objective response rate (CR + PR) [11]: 1 (100.0%)
Progressive disease (PD) [11]: 0%
Confirmed complete response (CR) [12]: 0%
Confirmed partial response (PR) [12]: 0%
Disease control rate (CR + PR + SD) [12]: 0%
Inevaluable [12]: 1 (100.0%)
Objective response rate (CR + PR) [12]: 0%
Progressive disease (PD) [12]: 0%
Confirmed complete response (CR) [13]: 0%
Confirmed partial response (PR) [13]: 0%
Disease control rate (CR + PR + SD) [13]: 1 (100.0%)
Inevaluable [13]: 0%
Objective response rate (CR + PR) [13]: 0%
Progressive disease (PD) [13]: 0%
Confirmed complete response (CR) [14]: 0%
Confirmed partial response (PR) [14]: 1 (100.0%)
Disease control rate (CR + PR + SD) [14]: 1 (100.0%)
Inevaluable [14]: 0%
Objective response rate (CR + PR) [14]: 1 (100.0%)
Progressive disease (PD) [14]: 0%
Disease control rate (CR + PR + SD) [15]: 69 (79.3%)
Inevaluable [15]: 2 (2.3%)
Progressive disease (PD) [15]: 16 (18.4%)
6-month progression-free survival rate (95% CI), among responders [16]: 0.50 (0.06, 0.84)
9-month progression-free survival rate (95% CI), among responders [16]: 0.50 (0.06, 0.84)
Confirmed complete response (CR) [17]: 0%
Confirmed partial response (PR) [17]: 4 (17.4%)
Disease control rate (CR + PR + SD) [17]: 15 (65.2%)
Inevaluable [17]: 1 (4.3%)
Progressive disease (PD) [17]: 7 (30.4%)
6-month progression-free survival rate (95% CI), among responders [18]: 0.42 (0.24, 0.59)
9-month progression-free survival rate (95% CI), among responders [18]: 0.19 (0.07, 0.37)
12-month progression-free survival rate (95% CI), among responders [18]: 0.19 (0.07, 0.37)
Confirmed complete response (CR) [19]: 3 (4.7%)
Confirmed partial response (PR) [19]: 28 (43.8%)
Disease control rate (CR + PR + SD) [19]: 54 (84.4%)
Inevaluable [19]: 1 (1.6%)
Progressive disease (PD) [19]: 9 (14.1%)
Confirmed complete response (CR) [20]: 0%
Confirmed partial response (PR) [20]: 0%
Disease control rate (CR + PR + SD) [20]: 0%
Inevaluable [20]: 1 (100.0%)
Objective response rate (CR + PR) [20]: 0%
Progressive disease (PD) [20]: 0%
Confirmed complete response (CR) [21]: 1 (3.4%)
Confirmed partial response (PR) [21]: 5 (17.2%)
Disease control rate (CR + PR + SD) [21]: 23 (79.3%)
Inevaluable [21]: 2 (6.9%)
Progressive disease (PD) [21]: 4 (13.8%)
Confirmed complete response (CR) [22]: 0%
Confirmed partial response (PR) [22]: 0%
Disease control rate (CR + PR + SD) [22]: 1 (50.0%)
Inevaluable [22]: 0%
Objective response rate (CR + PR) [22]: 0%
Progressive disease (PD) [22]: 1 (50.0%)
6-month progression-free survival rate (95% CI), among responders [23]: 0.80 (0.20, 0.97)
9-month progression-free survival rate (95% CI), among responders [23]: 0.80 (0.20, 0.97)
12-month progression-free survival rate (95% CI), among responders [23]: 0.60 (0.13, 0.88)
Confirmed complete response (CR) [24]: 1 (4.2%)
Confirmed partial response (PR) [24]: 4 (16.7%)
Disease control rate (CR + PR + SD) [24]: 20 (83.3%)
Inevaluable [24]: 2 (8.3%)
Objective response rate (CR + PR) [24]: 5 (20.8%)
Progressive disease (PD) [24]: 2 (8.3%)
6-month progression-free survival rate (95% CI), among responders [25]: 0 (NE, NE)
9-month progression-free survival rate (95% CI), among responders [25]: 0 (NE, NE)
12-month progression-free survival rate (95% CI), among responders [25]: 0 (NE, NE)
Confirmed complete response (CR) [26]: 0%
Confirmed partial response (PR) [26]: 1 (33.3%)
Disease control rate (CR + PR + SD) [26]: 2 (66.7%)
Inevaluable [26]: 0%
Objective response rate (CR + PR) [26]: 1 (33.3%)
Progressive disease (PD) [26]: 1 (33.3%)
Confirmed complete response (CR) [27]: 0%
Confirmed partial response (PR) [27]: 1 (100.0%)
Disease control rate (CR + PR + SD) [27]: 1 (100.0%)
Inevaluable [27]: 0%
Objective response rate (CR + PR) [27]: 1 (100.0%)
Progressive disease (PD) [27]: 0%
Confirmed complete response (CR) [28]: 0%
Confirmed partial response (PR) [28]: 0%
Disease control rate (CR + PR + SD) [28]: 0%
Inevaluable [28]: 0%
Objective response rate (CR + PR) [28]: 0%
Progressive disease (PD) [28]: 1 (100.0%)
Confirmed complete response (CR) [29]: 0%
Confirmed partial response (PR) [29]: 0%
